{"source": "patent US10117890B2", "about": "“Methods and compositions for treating pain” (Academia Sinica, priority 2012, dated 2018)", "system": "acid(ASIC3)-induced chronic muscle pain", "assay": "Acid-induced chronic muscle pain model (repeated intramuscular acid injection, von Frey test)", "assay_type": "in vivo, mice", "settings": "T1-11 4 pmole, co-injected with acid saline pH 4.0 into gastrocnemius muscle", "from_the_text": "Adult (8- to 12-wk-old) C57/BL6 mice were used. All procedures followed the Guide for the Use of Laboratory Animals (National Academy Press, Washington D.C., USA) and were approved by the Institutional Animal Care and Use Committee of Academia Sinica. We aimed to minimize the number of animals used and their suffering without compromising the quality of the experiments. The generation and genotyping of Tac1^−/− mice and Asic3^−/− mice were as described. Both null mutant mice were backcrossed to C57/BL6 for 10 generations to establish a congenic strain. Congenic Tac1^−/− Asic3^−/− mice were offspring of Tacl^+/− and Asic3^+/− intercrosses.\nMice received an intramuscular acid injection in the gastrocnemius muscle (GM) containing 20 μl acid saline (pH 4.0) with or without (Sar^9, Met(O2)^11)-substance P (SP; 4, 10, or 40 μM) or 100 μM RP67580 or 200 μM XE991. Mechanical hyperalgesia was assessed by applying a 0.2-mN von Frey filament to the plantar surface of both hind paws of mice. Mice were acclimatized in an acrylic cubicle for 60 min before testing. A positive response was defined as the foot lifting when the von Frey filament was applied. For each paw, the filament was applied 5 times at 30-sec intervals. Responses of the paw to mechanical stimuli were measured before injection and at 4 and 24 hr and 5 days after the first acid injection (day 0) and at 4, 24, and 72 hr and 1 week after the second acid injection (day 5). For single-injection experiments, responses to mechanical stimuli were measured before the injection, at 4 hr and at 1, 3, 5, 7, 9, 11, 13, 15 and 22 days after the injection or at 4, 24, 48 hr and 7 and 14 days after the injection. NK1-selective agonist ((Sar^9, Met(O2)^11)—SP) was from Sigma Chemical (St. Louis, Mo.). NK1-selective antagonist (RP67580) and XE991 were from Tocris (Avonmouth, UK). The experimenters were blinded to the experimental manipulations. The person who conducted von Frey test had no information of the mouse genotypes or drug injections.", "note": "Entries after “also recorded” stand apart in the source; their conditions may differ.", "data": [{"smiles": "OC[C@H]1O[C@@H](n2cnc3c(NCc4ccc(O)cc4)ncnc32)[C@H](O)[C@@H]1O", "note": "[T1-11, N^6-(4-hydroxybenzyl)adenosine]", "values": [{"measurement": "acid-induced hyperalgesia, co-injection of acid and T1-11", "value": "abolished the transient hyperalgesia and prevented the development of chronic hyperalgesia; also recorded: still had analgesic effects"}]}]}
